Experimental findings from US20240390286A1, “PREPARATION OF PHARMACEUTICAL COMPOSITIONS USING SUPERCYCLE VAPOR PHASE DEPOSITION OF METAL OXIDES” (Applied Materials, Inc., priority 2023, published 2024) are described below.

Each structure is given as a SMILES string.

Holding throughout (assay type): physicochemical
Data set [1] can be described thus: Particle size distribution by laser diffraction before and after coating. The source says:
As shown in the table below, there is no significant change in particle size distribution after the coating process.

Data set [2] in a line: Indomethacin dissolution, pH 7.2 sodium phosphate buffer, USP2 apparatus (paddle). Particulars: 37° C., 100 rpm. The protocol:
In some embodiments, the dissolution or drug release of the coated particles can be assessed by an in vitro release over time (dissolution) analysis. In some embodiments, the dissolution or drug release of the coated particles can be assessed by HPLC analysis. In some embodiments, the dissolution is assessed in methanol. In some embodiments, the dissolution is assessed in a sodium phosphate buffer solution (PBS) (e.g., pH 7.2, with or without surfactant) at 37° C., with a stirring of 100 revolutions per minute (RPM), for more than 1 minute, more than 2 minutes, more than 5 minutes, more than 10 minutes, more than 20 minutes, more than 30 minutes, more than 40 minutes, more than 50 minutes, more than 60 minutes, more than 120 minutes, more than 3 hours, more than 4 hours, more than 5 hours, more than 6 hours, more than 7 hours, more than 8 hours, more than 12 hours, more than 16 hours, more than 24 hours. In some embodiments, the coated particles have a reduced dissolution rate compared to uncoated drug particles. […]

Data set [3] in a line: Indomethacin dissolution, pH 7.2 PIPES buffer, USP4 apparatus (flow through). The conditions noted are these: 37° C., 16 ml/min. As to the method:
FIG. 8 depicts the results of a study of indomethacin dissolution in pH 7.2 PIPES buffer solution in a USP4 dissolution apparatus (flow through) at 37° C. at a 16 ml/min flow rate. […] Again, the indomethacin release rates for AZO coated particles were in between that of ZnOx coated particles and that of AlOx coated particles. The release rate of AZO coated particles decreases as the Al/Zn ratio increases.

In data set [1] (laser diffraction), `COc1ccc2c(c1)c(CC(=O)O)c(C)n2C(=O)c1ccc(Cl)cc1` [UC-m-IMC, indomethacin] yielded a D10 of 4.4 ± 0.4 μm, a D50 of 13.3 ± 0.1 μm and a D90 of 24.5 ± 0.5 μm. The Span in data set [1] (laser diffraction size distribution) is listed as 1.5. Besides, in data set [2], the indomethacin release profile result is “immediate indomethacin release profile”. Further, in data set [3], the indomethacin release profile result is “immediate indomethacin release”.
